Values joined by “and” are separate entries in the source; they are usually repeats but may differ in a detail not shown here. Equal values may be shown once.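 Five concentrations, 48 hours, 96-well plates. GI50 = concentration required for 50% inhibition of growth. Definition used: TGI = concentration required for complete inhibition of growth.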
Tests used:
Assay in all cases: NCI tumour cell line growth inhibition, 48 h
A498 renal = test system: A498 renal
A549 NSCLC = test system: A549 NSCLC
BT-549 breast = test system: BT-549 breast
CAKI-1 renal = test system: CAKI-1 renal
CCRF-CEM leukemia = test system: CCRF-CEM leukemia
COLO 205 colon = test system: COLO 205 colon
DLD-1 colon = test system: DLD-1 colon
DMS 114 small cell lung = test system: DMS 114 small cell lung
DMS 273 small cell lung = test system: DMS 273 small cell lung
DU-145 prostate = test system: DU-145 prostate
EKVX NSCLC = test system: EKVX NSCLC
HCC-2998 colon = test system: HCC-2998 colon
HCT-116 colon = test system: HCT-116 colon
HCT-15 colon = test system: HCT-15 colon
HL-60(TB) leukemia = test system: HL-60(TB) leukemia
HOP-18 NSCLC = test system: HOP-18 NSCLC
HOP-62 NSCLC = test system: HOP-62 NSCLC
HOP-92 NSCLC = test system: HOP-92 NSCLC
HS 578T breast = test system: HS 578T breast
HT29 colon = test system: HT29 colon
IGROV1 ovarian = test system: IGROV1 ovarian
K-562 leukemia = test system: K-562 leukemia
KM20L2 colon = test system: KM20L2 colon
LOX IMVI melanoma = test system: LOX IMVI melanoma
M14 melanoma = test system: M14 melanoma
M19-MEL melanoma = test system: M19-MEL melanoma
MALME-3M melanoma = test system: MALME-3M melanoma
MCF7 breast = test system: MCF7 breast
MDA-MB-435 = test system: MDA-MB-435
MDA-N = test system: MDA-N
MOLT-4 leukemia = test system: MOLT-4 leukemia
NCI-H23 lung = test system: NCI-H23 lung
NCI-H460 lung = test system: NCI-H460 lung
NCI/ADR-RES ovarian = test system: NCI/ADR-RES ovarian
OVCAR-3 ovarian = test system: OVCAR-3 ovarian
OVCAR-4 ovarian = test system: OVCAR-4 ovarian
OVCAR-5 ovarian = test system: OVCAR-5 ovarian
OVCAR-8 ovarian = test system: OVCAR-8 ovarian
P388 leukemia = test system: P388 leukemia
P388/ADR leukemia = test system: P388/ADR leukemia
PC-3 prostate = test system: PC-3 prostate
RPMI-8226 leukemia = test system: RPMI-8226 leukemia
RXF 393 renal = test system: RXF 393 renal
SF-268 CNS = test system: SF-268 CNS
SF-295 CNS = test system: SF-295 CNS
SF-539 CNS = test system: SF-539 CNS
SK-MEL-2 melanoma = test system: SK-MEL-2 melanoma
SK-OV-3 ovarian = test system: SK-OV-3 ovarian
SN12C renal = test system: SN12C renal
SN12K1 renal = test system: SN12K1 renal
SNB-19 CNS = test system: SNB-19 CNS
SNB-75 CNS = test system: SNB-75 CNS
SR leukemia = test system: SR leukemia
SW-620 colon = test system: SW-620 colon
T-47D breast = test system: T-47D breast
TK-10 renal = test system: TK-10 renal
U251 CNS = test system: U251 CNS
UACC-62 melanoma = test system: UACC-62 melanoma
UO-31 renal = test system: UO-31 renal
XF 498 CNS = test system: XF 498 CNS
786-0 renal = test system: 786-0 renal
LXFL 529 NSCLC = test system: LXFL 529 NSCLC
RXF-631 renal = test system: RXF-631 renal
SK-MEL-5 melanoma = test system: SK-MEL-5 melanoma
SNB-78 CNS = test system: SNB-78 CNS
UACC-257 melanoma = test system: UACC-257 melanoma

C=Cc1cc(OC)c2c(c1)c(=O)oc1c2cc(OC)c2c(O)ccc(C3OC(C)C(O)C(C)(O)C3O)c21 (stereo not drawn)
GI50 (A498 renal): 1.21 nM
GI50 (A549 NSCLC): 0.716 nM
TGI (A549 NSCLC): 376 nM
TGI (BT-549 breast): 7.58 nM
GI50 (CAKI-1 renal): 2.24 nM
TGI (CAKI-1 renal): 91.6 nM
GI50 (CCRF-CEM leukemia): 0.0129 nM
TGI (COLO 205 colon): 409 nM
TGI (DLD-1 colon): 1070 nM
TGI (DMS 114 small cell lung): 39.3 nM
TGI (DMS 273 small cell lung): 139 nM
TGI (DU-145 prostate): 8.97 nM
GI50 (EKVX NSCLC): 0.589 nM
GI50 (HCC-2998 colon): 2.53 nM
GI50 (HCT-116 colon): 0.308 nM
GI50 (HCT-15 colon): 0.552 nM
TGI (HCT-15 colon): 467 nM
TGI (HL-60(TB) leukemia): 25.6 nM
TGI (HOP-18 NSCLC): 392 nM
GI50 (HOP-62 NSCLC): 0.0967 nM
GI50 (HOP-92 NSCLC): 0.215 nM
TGI (HOP-92 NSCLC): 240 nM
TGI (HS 578T breast): 6.83 nM
GI50 (HT29 colon): 0.815 nM
TGI (HT29 colon): 666 nM
GI50 (IGROV1 ovarian): 1.43 nM
TGI (IGROV1 ovarian): 1080 nM
GI50 (K-562 leukemia): 0.37 nM
TGI (K-562 leukemia): 947 nM
TGI (KM20L2 colon): 161 nM
GI50 (LOX IMVI melanoma): 0.281 nM
TGI (M14 melanoma): 1.62 nM
TGI (M19-MEL melanoma): 160 nM
GI50 (MALME-3M melanoma): 1.53 nM
GI50 (MCF7 breast): 0.0358 nM
TGI (MCF7 breast): 360 nM
TGI (MDA-MB-435): 3.65 nM
TGI (MDA-N): 4.25 nM
GI50 (MOLT-4 leukemia): 0.0198 nM
GI50 (NCI-H23 lung): 0.113 nM
GI50 (NCI-H460 lung): 0.484 nM
TGI (NCI-H460 lung): 6.52 nM and 58.4 nM
GI50 (NCI/ADR-RES ovarian): 0.659 nM
GI50 (OVCAR-3 ovarian): 1.81 nM
GI50 (OVCAR-4 ovarian): 2.15 nM
GI50 (OVCAR-5 ovarian): 0.251 nM
GI50 (OVCAR-8 ovarian): 0.476 nM
TGI (P388 leukemia): 529 nM
TGI (P388/ADR leukemia): 804 nM
TGI (PC-3 prostate): 4.05 nM
GI50 (RPMI-8226 leukemia): 0.432 nM
GI50 (RXF 393 renal): 0.174 nM
GI50 (SF-268 CNS): 0.148 nM
GI50 (SF-295 CNS): 0.699 nM
TGI (SF-295 CNS): 9.9 nM and 59.3 nM
GI50 (SF-539 CNS): 0.153 nM
GI50 (SK-MEL-2 melanoma): 1.34 nM
GI50 (SK-OV-3 ovarian): 0.565 nM
GI50 (SN12C renal): 1.49 nM
TGI (SN12K1 renal): 131 nM
GI50 (SNB-19 CNS): 1.51 nM
TGI (SNB-19 CNS): 733 nM
GI50 (SNB-75 CNS): 0.41 nM
TGI (SR leukemia): 0.187 nM
GI50 (SW-620 colon): 0.502 nM
TGI (T-47D breast): 4.39 nM
TGI (TK-10 renal): 8.55 nM
GI50 (U251 CNS): 0.187 nM
GI50 (UACC-62 melanoma): 1.2 nM
GI50 (UO-31 renal): 1.84 nM
TGI (XF 498 CNS): 37.3 nM

COC1=C2C[C@@H](C)C[C@@H](OC)[C@@H](O)[C@H](C)/C=C(\C)[C@@H](OC(N)=O)[C@H](OC)/C=C\C=C(/C)C(=O)NC(=CC1=O)C2=O
TGI (786-0 renal): 8210 nM and 6040 nM and 13700 nM
TGI (A498 renal): 17800 nM and 2370 nM
TGI (CCRF-CEM leukemia): 1070 nM and 7400 nM and 4950 nM
GI50 (COLO 205 colon): 57.8 nM and 15 nM
GI50 (DLD-1 colon): 131 nM
TGI (DLD-1 colon): 9630 nM and 3150 nM
TGI (DMS 114 small cell lung): 2140 nM
TGI (DMS 273 small cell lung): 2050 nM
TGI (DU-145 prostate): 4660 nM and 10300 nM and 14200 nM
TGI (HCT-116 colon): 3950 nM and 5440 nM and 1880 nM
GI50 (HOP-18 NSCLC): 28.8 nM
TGI (HOP-18 NSCLC): 4920 nM and 1280 nM
GI50 (HS 578T breast): 1310 nM and 11800 nM and 1250 nM
TGI (HS 578T breast): 17500 nM and 42000 nM and 38200 nM
GI50 (KM20L2 colon): < 34.7 nM
TGI (KM20L2 colon): 990 nM and 886 nM
GI50 (LOX IMVI melanoma): 20.8 nM and 51 nM and 45.9 nM
TGI (LOX IMVI melanoma): 1480 nM and 1380 nM
TGI (LXFL 529 NSCLC): 14100 nM
TGI (MALME-3M melanoma): 8130 nM and 3440 nM and 1130 nM
TGI (MDA-MB-435): 5500 nM and 8630 nM and 5650 nM
GI50 (MDA-N): 5.77 nM
TGI (MDA-N): 8510 nM
TGI (NCI/ADR-RES ovarian): 10700 nM and 32800 nM and 10600 nM
TGI (P388 leukemia): 480 nM
TGI (P388/ADR leukemia): 1470 nM
TGI (PC-3 prostate): 8010 nM and 5580 nM and 14900 nM
GI50 (RXF 393 renal): 24.5 nM
TGI (RXF-631 renal): 3350 nM
TGI (SF-539 CNS): 9470 nM and 12200 nM and 2680 nM
TGI (SK-MEL-5 melanoma): 8.59 µM [middle of 4 runs]
TGI (SK-OV-3 ovarian): 37500 nM and 18000 nM and 8190 nM
TGI (SN12K1 renal): 2510 nM
TGI (SNB-19 CNS): 28000 nM and 26500 nM and 10400 nM
GI50 (SNB-75 CNS): 7930 nM and 4680 nM and 1120 nM
TGI (SNB-75 CNS): 18600 nM and 19200 nM and 3970 nM
GI50 (SNB-78 CNS): 859 nM
TGI (SNB-78 CNS): 11700 nM and 7420 nM
TGI (U251 CNS): 6510 nM and 19400 nM and 4200 nM
TGI (UACC-257 melanoma): 5050 nM and 12700 nM and 2500 nM
GI50 (XF 498 CNS): 35.6 nM
TGI (XF 498 CNS): 1130 nM and 853 nM
